In patent publication US10039283B2, “Substituted pyrazolyl-nicotin(thio)amide derivatives and their use as fungicides” (BAYER CROPSCIENCE AKTIENGESELLSCHAFT, priority 2014, dated 2018):

experiment: Log P by HPLC on reversed phase, method [a], acidic range (0.1% formic acid); type: physicochemical; conditions: LC-UV, 0.1% formic acid in water and acetonitrile

| Compound | LogP |
| --- | --- |
| O=C(Nc1cnn(-c2cc(Cl)cc(Cl)c2)c1C(F)(F)F)c1cccnc1C(F)F [Example 92] | 3.64^[a] |
| O=C(Nc1cnn(-c2ccc(Cl)cc2Cl)c1C(F)(F)F)c1cccnc1C(F)F [Example 93] | 3.27^[a] |
| O=C(Nc1cnn(-c2cccc(Cl)c2Cl)c1C(F)(F)F)c1cccnc1C(F)F [Example 94] | 3.11^[a] |
| O=C(Nc1cnn(-c2cc(Cl)ccc2Cl)c1C(F)(F)F)c1cccnc1C(F)F [Example 95] | 3.15^[a] |
| O=C(Nc1cnn(-c2ccc(Cl)c(Cl)c2)c1C(F)(F)F)c1cccnc1C(F)F [Example 96] | 3.51^[a] |
| O=C(Nc1cnn(Cc2ccccc2)c1C(F)(F)F)c1cccnc1C(F)F [Example 97] | 2.71^[a] |
| CCc1c(NC(=O)c2cccnc2C(F)F)cnn1-c1ccc(C)cc1 [Example 99] | 2.34^[a] |
| CCc1c(NC(=O)c2cccnc2C(F)F)cnn1-c1cccc(C)c1 [Example 100] | 2.34^[a] |
| Cc1ccc(-n2ncc(NC(=O)c3cc(C)cnc3C(F)F)c2C(F)(F)F)cc1 [Example 101] | 3.13^[a] |
| CCc1c(NC(=O)c2cccnc2C(F)F)cnn1-c1ccccc1C [Example 104] | 2.18^[a] |
| CCc1c(NC(=O)c2cccnc2C(F)F)cnn1-c1ccc(Cl)cc1 [Example 105] | 2.48^[a] |
| CCc1c(NC(=O)c2cccnc2C(F)F)cnn1-c1cccc(Cl)c1 [Example 107] | 2.48^[a] |
| CCc1c(NC(=O)c2cccnc2C(F)F)cnn1-c1ccccc1Cl [Example 110] | 2.17^[a] |
| Cc1c(NC(=O)c2cccnc2C(F)F)cnn1-c1ccccc1C(F)(F)F [Example 111] | 2.08^[a] |
| Cc1ccc(-n2ncc(NC(=O)c3cccnc3C(F)F)c2C)cc1 [Example 112] | 2.10^[a] |
| Cc1c(NC(=O)c2cccnc2C(F)F)cnn1-c1cccc(C(F)(F)F)c1 [Example 113] | 2.48^[a] |
| Cc1c(NC(=O)c2cccnc2C(F)F)cnn1-c1ccc(C(F)(F)F)cc1 [Example 114] | 2.53^[a] |
| CCc1c(NC(=O)c2cccnc2C(F)F)cnn1-c1cccc(C(F)(F)F)c1 [Example 117] | 2.69^[a] |
| CCc1c(NC(=O)c2cccnc2C(F)F)cnn1-c1ccc(C(F)(F)F)cc1 [Example 118] | 2.76^[a] |
| CCCCn1ncc(NC(=O)c2cccnc2C(F)F)c1CC [Example 122] | 2.00^[a] |
| CCCCn1ncc(NC(=O)c2cccnc2C(F)F)c1C(C)C [Example 123] | 2.18^[a] |
| CCc1c(NC(=O)c2cccnc2C(F)F)cnn1CCC(C)C [Example 124] | 2.32^[a] |
| CC(C)CCn1ncc(NC(=O)c2cccnc2C(F)F)c1C(C)C [Example 125] | 2.53^[a] |

Continued, values first:

| LogP | Compound |
| --- | --- |
| 1.82^[a] | COc1c(NC(=O)c2cccnc2C(F)F)cnn1-c1ccccc1 [Example 98] |
| 2.62^[a] | CC(C)c1c(NC(=O)c2cccnc2C(F)F)cnn1-c1ccc(Cl)cc1 [Example 102] |
| 2.60^[a] | CC(C)c1c(NC(=O)c2cccnc2C(F)F)cnn1-c1cccc(Cl)c1 [Example 103] |
| 2.37^[a] | Cc1ccccc1-n1ncc(NC(=O)c2cccnc2C(F)F)c1C(C)C [Example 106] |
| 2.48^[a] | Cc1ccc(-n2ncc(NC(=O)c3cccnc3C(F)F)c2C(C)C)cc1 [Example 108] |
| 2.35^[a] | CC(C)c1c(NC(=O)c2cccnc2C(F)F)cnn1-c1ccccc1Cl [Example 109] |
| 1.93^[a] | Cc1ccccc1-n1ncc(NC(=O)c2cccnc2C(F)F)c1C [Example 115] |
| 2.50^[a] | Cc1cccc(-n2ncc(NC(=O)c3cccnc3C(F)F)c2C(C)C)c1 [Example 116] |
| 2.01^[a] | CCc1c(NC(=O)c2cccnc2C(F)F)cnn1-c1ccccc1 [Example 119] |
| 2.15^[a] | CC(C)c1c(NC(=O)c2cccnc2C(F)F)cnn1-c1ccccc1 [Example 120] |
| 2.28^[a] | CCCc1c(NC(=O)c2cccnc2C(F)F)cnn1-c1ccccc1 [Example 121] |
